Legend:
bulk monocytes [1] = assay: RNA sequencing of monocytes isolated from treated patients; set-up: species or system human; details: treatment compared to placebo
Protocol: Following the inventors' hypothesis of an overactivation of the innate immune system in patients experiencing post-bariatric hypoglycemia, they assessed transcriptional changes in innate immune cells from the inventors' patient population using an unbiased RNA sequencing approach. Therefore, the inventors isolated monocytes from peripheral blood sampled immediately before and 60 minutes (i.e. before rescue glucose application when needed) after ingestion of the mixed-meal on all three treatment days.
(§1) Blood samples were taken before and 60 minutes after meal intake. Due to scheduling conflicts, samples from two patients could not be processed. These samples are thus assumed to be missing at random. Of note, samples from patient 3 (sleeve gastrectomy) had already been processed for RNA sequencing before the final change of protocol. Sequencing data obtained from this patient were thus kept for the purpose of these analyses. Peripheral blood mononuclear cells were obtained by Ficoll density gradient centrifugation (Lymphoprep Fresenius Kabi, Norway). For 9 out of 11 patients, an additional step was added after density gradient centrifugation to pre-enrich monocytes by negative selection with CD3 human MicroBeads (#130-050-101; Miltenyi Biotec). The obtained cellular monocyte fractions were then incubated with FC-Block for 15 minutes at room temperature [(Human FcR TruStain FcX (Biolegend) REF 422302, compatible with flow cytometric staining with anti-human CD16 (clone 3G8)], and subsequently labeled with the following antibodies: APC Mouse anti-Human CD3 [HIT3a alpha] (#555342; BD Biosciences), FITC Mouse Anti-Human CD19 [HIB19 RUO] (#560994; BD Biosciences), PE-Cy5 Mouse Anti-Human CD56 [B159 RUO] (#560842; BD Biosciences), PE Mouse Anti-Human CD16 [3G8 RUO] (#560995; BD Biosciences), APC-Cy7 Mouse Anti-Human CD14 [MφP-9 RUO] (#561709; BD Biosciences).
(§2) Cells were then further enriched into the three monocyte subsets by fluorescence-activated cell sorting on a BD FACS-Aria III. Classical monocytes were defined as: single, live, CD56− CD19−CD3−CD14+CD16−, Intermediate monocytes were defined as: single, live CD56−CD19− CD3−CD14+CD16+ and non-classical monocytes were defined as: single, live CD56−CD19− CD3−CD14−CD16+. Bulk monocytes were defined as a combination-gate of the three subsets. For a representative example of the gating strategy see FIG. 13.
Total RNA was extracted from 500'000 bulk monocytes, isolated as described above using the Nucleo Spin RNA II Kit (Machery Nagel). Integrity of isolated total RNA was assessed on a 2100 Bioanalyzer System (Agilent Technologies, USA) with the Agilent RNA 6000 Pico Kit as recommended by the manufacturer. RNA concentration was determined with the Quant-iT RiboGreen RNA Assay Kit (Thermo Fisher Scientific, USA).
Purification of mRNA by poly(A)-selection, mRNA fragmentation and cDNA library preparation for RNA-Seq were performed using the TruSeq Stranded mRNA HT Sample Preparation Kit (Illumina, USA) according to the manufacturer's protocol. Before sequencing, quality and quantity analysis of prepared cDNA libraries were done on a Fragment Analyzer System (Advanced Analytical Technologies, USA). cDNA libraries were sequenced as single-end reads with 125 cycles on a HiSeq2500 sequencing system (Illumina, USA) at the Genomics Facility Basel. Of note, 2 samples failed during library preparation.
Initial quality checks were performed with FastQC version 0.11.4 (www.bioinformatics.babraham.ac.uk/projects/fastqc/). Adaptor clipping and quality-trimming of sequences was performed using Trimmomatic version 0.36 (Bolger, A. M., Lohse, M., and Usadel, B. (2014). Bioinformatics 30, 2114-2120) and reads were aligned to the GRCh38 reference genome using the splice aware aligner STAR version 2.7.0 (Dobin, A., et al. (2013). Bioinformatics 29, 15-21). Count-tables were produced using HTSeq version 0.6.1 (Anders, S., Pyl, P. T., and Huber, W. (2015). Bioinformatics 31, 166-169). […]

bulk monocytes [2] = assay: Ex vivo cytokine-secretion assay of monocytes isolated from treated patients; type: cell-based, human; details: for IL-1 beta in monocyte supernatant, estimate vs placebo: FIG. 9a; for IL-1 beta in monocyte supernatant, estimate vs placebo / IL-6 in monocyte supernatant, estimate vs placebo / TNFalpha in monocyte supernatant, estimate vs placebo: post-meal, no-hypo vs placebo, no-hypo, non-stimulated; for IL-6 in monocyte supernatant, estimate vs placebo: FIG. 9b; for TNFalpha in monocyte supernatant, estimate vs placebo: FIG. 9c; for postprandial increase in inflammatory cytokine secretion (IL-1β, IL-6, TNF-α) by monocytes: ex vivo culture 18 h, compared to placebo
Protocol: In order to evaluate if changes at RNA level translated into protein expression, the inventors cultured monocytes isolated as described for RNA sequencing for a period of 18 h and measured pro-inflammatory cytokines in cell culture supernatants. […] In line with the reasoning, it has been shown that monocytes taken from an inherently pro-inflammatory milieu (septic shock), express increased mRNA levels of various inflammatory cytokines and chemokines (IL-1β, IL-1α, IL-6, CCL2), but release markedly lower levels of protein following ex vivo stimulation with LPS.
as §1, §2
Bulk monocytes obtained as described above were resuspended in fresh medium (RPMI-1640 (containing 11 mM Glucose, #31870-025; GIBCO) containing 200 U/ml penicillin, 200 U/ml streptomycin (Pen/Strep, #15140; GIBCO), 2 mM Glutamax (#35050061; GIBCO), 1 mM NaPyruvat (#11360-039; GIBCO), 1×MeM (#11140050; Sigma) and 10% FCS (#10500; Invitrogen)) at a density of 50'000 cells/well in a standard 96-well U-bottom plate. For each patient-visit sample, monocytes pre- and post-liquid mixed-meal were either left unstimulated (baseline condition) or activated with LPS (LPS-SM, #tlrl-smlps, Invivogen=activated condition) at a concentration of 5 ng/ml in duplicates. Thus, treated cells were then incubated for a period of 18 hours at 37° C. and 5% CO2 followed by harvesting of cell supernatants. Cytokine concentrations were determined in cell supernatants using the V-PLEX Human Proinflammatory Panel II (4-Plex) kit (Mesoscale Discovery) according to the manufacturer's instructions (Alternate Protocol 1, Extended Incubation). Two patients had to be excluded from analysis due to technical problems.

Row | Compound | number of downregulated genes in monocytes (bulk monocytes [1]) | number of upregulated genes in monocytes (bulk monocytes [1]) | total genes differentially regulated in monocytes (bulk monocytes [1]) | IL-1 beta in monocyte supernatant, estimate vs placebo (bulk monocytes [2]) | IL-6 in monocyte supernatant, estimate vs placebo (bulk monocytes [2]) | TNFalpha in monocyte supernatant, estimate vs placebo (bulk monocytes [2]) | postprandial increase in inflammatory cytokine secretion (IL-1β, IL-6, TNF-α) by monocytes (bulk monocytes [2])
1 | OC[C@H]1O[C@@H](c2ccc(Cl)c(Cc3ccc(O[C@H]4CCOC4)cc3)c2)[C@H](O)[C@@H](O)[C@@H]1O [empagliflozin] | 0 | 14 | 14 | −3395.36 | −18937.7 | −453.496 | significantly inhibited
2 | anakinra: CAS NO 143090-92-0; recombinant, non-glycosylated form of the human interleukin-1 receptor antagonist (IL-1 Ra), 153 amino acids | 71 | 163 | 234 | −2426.73 | −17208.1 | −452.659 | significantly inhibited
